In ChEMBL document CHEMBL6120988, “Mitochondria-targeting artesunate-rhein conjugates: Linker-modulated cell-permeability, heme-affinity and anticancer activity” (Eur J Med Chem, 2025):
The source made the active and inactive calls. No cut-off for these calls is given here.

Legend:
[1] = system: 4T1; test: Induction of immunogenic cell death in mouse 4T1 cells assessed as increase in CRT expression by flow cytometry analysis (reference value: 2.55%); format: functional
[2] = system: 4T1; test: Immunostimulatory activity in mouse 4T1 cells implanted in female BALB/c mouse assessed as reduction in immunosuppressive CD206+ expression; format: functional, cell-based
[3] = Drug localization in mitochondria of mouse 4T1 cells assessed as fluorescence intensity measured using pearson co-efficient incubated for 10 hrs by mito-tracker red fluorescent dye based confocal laser scanning microscopic analysis; format: ADME; conditions: 4t1, 10 h
[4] = system: U-87 MG; test: Cytotoxicity against human U87 cells assessed as cell viability by MTT assay; format: functional, cell-based, U-87MG ATCC
[5] = system: 4T1; test: Induction of apoptosis in mouse 4T1 cells assessed as viable cells by Annexin V-FITC and PI staining based flow cytometry analysis (reference value: 96.2 %); format: functional
[6] = system: Mitochondrial membrane; test: Induction of mitochondrial membrane potential loss in mouse 4T1 cells assessed as increase in green fluorescence by JC-1 staining based flow cytometric analysis (reference value: 7.4 %); format: cell membranes
[7] = system: 4T1; test: Induction of ROS production in mouse 4T1 cells assessed as increase in intracellular ROS level by […] staining based flow cytometry (reference value: 7.8%); format: functional
[8] = system: 4T1; test: Antitumor activity against mouse 4T1 cells allografted in female BALB/c mouse assessed as tumor inhibition rate at 10 mg/kg, iv administrated every 3 day for 5 times and measured after 22 days relative to control; format: functional; set-up: scale not given: the % may be the effect or the level left; conditions: time 22 day
[9] = system: 4T1; test: Antitumor activity against mouse 4T1 cells allografted in female BALB/c mouse assessed as tumor inhibition rate at 100 mg/kg, po administrated every day for 15 times and measured after 22 days relative to control; format: functional; set-up: scale not given: the % may be the effect or the level left; conditions: time 22 day
[10] = Toxicity in female BALB/c mouse allografted with mouse 4T1 cells assessed as change in body weight at 10 mg/kg, iv administrated every 3 day for 5 times and measured every 2 days for 22 days relative to control; format: organism-based; conditions: in vivo, 528 h, time 22 day
[11] = Toxicity in female BALB/c mouse allografted with mouse 4T1 cells assessed as survival rate at 100 mg/kg, po administrated every day for 15 times and measured after 22 days relative to control; format: organism-based; conditions: in vivo, 528 h, time 22 day
[12] = system: 4T1; test: Antitumor activity against mouse 4T1 cells allografted in female BALB/c mouse assessed as reduction in tumor tissue volume at 100 mg/kg, po administrated every day for 15 times and measured after 22 days relative to control; format: functional, organism-based; conditions: time 22.0 day
[13] = system: 4T1; test: Antitumor activity against mouse 4T1 cells allografted in female BALB/c mouse assessed as reduction in tumor tissue volume at 10 mg/kg, iv administrated every 3 day for 5 times and measured after for 22 days; format: functional, organism-based; conditions: time 22.0 day
[14] = system: 4T1; test: Antitumor activity against mouse 4T1 cells allografted in female BALB/c mouse assessed as increase in nuclear shrinkage at 100 mg/kg, po administrated every day for 15 times and measured for 22 days; format: functional, organism-based; conditions: time 22.0 day
[15] = Toxicity in female BALB/c mouse allografted with mouse 4T1 cells assessed as effect on blood platelet at 10 mg/kg, iv administrated every 3 days for 5 times and measured after 22 days; format: organism-based; conditions: in vivo, 528 h, time 22 day
[16] = system: 4T1; test: Antitumor activity against mouse 4T1 cells allografted in female BALB/c mouse assessed as reduction in tumor tissue weight at 10 mg/kg, iv administrated every 3 day for 5 times and measured after for 22 days; format: functional, organism-based; conditions: time 22.0 day
[17] = Toxicity against female BALB/c mouse allografted with mouse 4T1 cells assessed as effect on white blood cells at 10 mg/kg, iv administrated every 3 days for 5 times and measured after 22 days; format: organism-based; conditions: in vivo, 528 h, time 22 day
[18] = Toxicity against female BALB/c mouse allografted with mouse 4T1 cells assessed as effect on white blood cells at 100 mg/kg, po administrated every day for 15 times and measured after 22 days; format: organism-based; conditions: in vivo, 528 h, time 22 day
[19] = system: 4T1; test: Antitumor activity against mouse 4T1 cells allografted in female BALB/c mouse assessed as disappearance of cancer cells at 100 mg/kg, po administrated every day for 15 times and measured after 22 days by H and E staining based analysis; format: functional, organism-based; conditions: time 22.0 day
[20] = system: 4T1; test: Antitumor activity against mouse 4T1 cells allografted in female BALB/c mouse assessed as disappearance of cancer cells at 10 mg/kg, iv administrated every 3 days for 5 times and measured after 22 days by H and E staining based analysis; format: functional, organism-based; conditions: time 22.0 day
[21] = Toxicity against female BALB/c mouse allografted with mouse 4T1 cells assessed as mean corpuscular volume at 100 mg/kg, po administrated every day for 15 times and measured after 22 days; format: organism-based; conditions: in vivo, 528 h, time 22 day
[22] = Toxicity against female BALB/c mouse allografted with mouse 4T1 cells assessed as mean corpuscular hemoglobin concentration at 10 mg/kg, iv administrated every 3 days for 5 times and measured after 22 days; format: organism-based; conditions: in vivo, 528 h, time 22 day
[23] = system: 4T1; test: Antitumor activity against mouse 4T1 cells allografted in female BALB/c mouse assessed as increase in apoptotic cells at 100 mg/kg, po administrated every day for 15 times and measured after 22 days by TUNEL staining based assay; format: functional, organism-based; conditions: time 22.0 day
[24] = system: 4T1; test: Antitumor activity against mouse 4T1 cells allografted in female BALB/c mouse assessed as inhibition of cell proliferation at 100 mg/kg, po administrated every day for 15 times and measured after 22 days by PCNA assay; format: functional, organism-based; conditions: time 22.0 day
[25] = system: 4T1; test: Induction of repolarization of M2 macrophages into M1 macrophages in mouse 4T1 cells assessed as ratio of M2 to M1 macrophages; format: functional, cell-based
[26] = system: 4T1; test: Antitumor activity against mouse 4T1 cells allografted in female BALB/c mouse assessed as increase in infiltration of CD3+ CD8+ T lymphocytes in tumors at 10 mg/kg, iv administrated every 3 days for 5 times and measured after 22 days by flow cytometry analysis (reference value: 7.87 %); format: functional; conditions: time 22 day
[27] = system: 4T1; test: Antitumor activity against mouse 4T1 cells allografted in female BALB/c mouse assessed as increase in infiltration of CD8+IFN-gamma+ lymphocytes in tumors at 100 mg/kg, po administrated every day for 15 times and measured after 22 days by flow cytometry (reference value: 5.99%); format: functional; conditions: time 22 day
[28] = AUC(0 to t) in mouse iv dosed mouse; format: ADME, organism-based; conditions: in vivo, dose 10 mg/kg, time 3 day
[29] = MRT (0 to infinity) in mouse at 100 mg/kg, po; format: ADME, organism-based; conditions: in vivo
[30] = MRT (0 to infinity) in iv dosed mouse; format: ADME, organism-based; conditions: in vivo
[31] = Oral bioavailability in mouse at 100 mg/kg; format: ADME, organism-based; conditions: in vivo
[32] = system: 4T1; test: Induction of mitochondrial dysfunction in mouse 4T1 cells assessed as oxygen consumption rate; format: functional, cell-based
[33] = system: 4T1; test: Induction of mitochondrial dysfunction in mouse 4T1 cells assessed as coupling efficiency; format: functional, cell-based
[34] = system: 4T1; test: Antitumor activity against mouse 4T1 cells allografted in female BALB/c mouse assessed as increase in infiltration of CD8+IFN-gamma+ lymphocytes in tumors at 10 mg/kg, iv administrated every day for 15 times and measured after 22 days by flow cytometry (reference value: 5.58%); format: functional; conditions: time 22 day

C[C@H]1[C@H](OC(=O)CCC(=O)OCCCCOC(=O)c2cc(O)c3c(c2)C(=O)c2cccc(O)c2C3=O)O[C@@H]2O[C@@]3(C)CC[C@H]4[C@H](C)CC[C@@H]1[C@@]24OO3
Activity [1]: 32.82%
Activity [2]: Active
Flu intensity [3]: 0.96
IC50 [4]: 2140 nM
Activity [5]: 35.5%
Activity [6]: 45.6%
Activity [7]: 42.5%
Activity [8]: 79.15%
Activity [9]: 76.84%
Activity [10]: Non-toxic
Survival [11]: <= 39 day
Activity [12]: Active; Tumor Lighter Weight Than Pbs Treatment
Activity [13]: Active
Activity [14]: Active
Activity [15]: Non-toxic
Activity [16]: Active; Tumor Lighter Weight Than Pbs Treatment
Activity [17]: Non-toxic
Activity [18]: Non-toxic
Activity [19]: Active
Activity [20]: Active
Activity [21]: Non-toxic
Activity [22]: Non-toxic
Activity [23]: Active
Activity [24]: Active
Activity [25]: Active; Compound Triggers Repolarization By Reversing The Ratio Of M2 To M1 Macrophages
Activity [26]: 15.33%
Activity [27]: 13.3%
AUC(0-t) at 72 h [28]: 11500 ng·h/mL
MRT inf [29]: 4.95 h
MRT inf [30]: 7.67 h
bioavailability [31]: 15.8%
Activity [32]: Active
Activity [33]: Active
Activity [34]: 12.3%
